PubChem BioAssay (NCI)
“And” between values parts separate entries of the source, which are not always exact repeats. Equal entries are not always repeated.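 Growth conditions: 96-well plates. Treatment: test compound, 48 hours, 5 concentrations. Analysis: linear interpolation between bracketing concentrations; unreached endpoints set to highest concentration. GI50 = concentration required for 50% inhibition of growth. TGI: total growth inhibition.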

Legend:
Assay in all cases: NCI-60 cell line screen, 48 h
T-47D breast = system: T-47D breast
KM12 colon = system: KM12 colon
SNB-19 CNS = system: SNB-19 CNS
IGROV1 ovarian = system: IGROV1 ovarian
MALME-3M melanoma = system: MALME-3M melanoma
RPMI-8226 leukemia = system: RPMI-8226 leukemia
NCI-H226 lung = system: NCI-H226 lung
SF-539 CNS = system: SF-539 CNS
M14 melanoma = system: M14 melanoma
MOLT-4 leukemia = system: MOLT-4 leukemia

Structure (SMILES)	TGI (T-47D breast) [µM]	TGI (KM12 colon)	TGI (SNB-19 CNS)	TGI (IGROV1 ovarian)	TGI (MALME-3M melanoma)	TGI (RPMI-8226 leukemia) [µM]	TGI (NCI-H226 lung)	TGI (SF-539 CNS) [µM]	TGI (M14 melanoma) [µM]	TGI (MOLT-4 leukemia)	GI50 (KM12 colon) [µM]	GI50 (SNB-19 CNS) [µM]	GI50 (IGROV1 ovarian) [µM]	GI50 (MALME-3M melanoma) [µM]	GI50 (NCI-H226 lung) [µM]	GI50 (SF-539 CNS) [µM]	GI50 (MOLT-4 leukemia) [µM]
COc1cc(/C=C/C(=N\NS(=O)(=O)c2ccc(C)cc2)c2sc(NNC(C)=O)nc2C)ccc1O	> 100	> 100 µM	> 100 µM	> 100 µM	> 100 µM	> 100	> 100 µM	> 100	> 100	> 100 µM	–	–	–	–	–	–	–
COc1ccc(C(OCC2OC(n3cc(C)c(=O)[nH]c3=O)CC2n2cc(Cn3cc(I)c(=O)[nH]c3=O)nn2)(c2ccccc2)c2ccccc2)cc1 (centres undefined)	> 100	> 100 µM	> 100 µM	> 100 µM	> 100 µM	> 100	> 100 µM	> 100	> 100	> 100 µM	–	–	–	–	–	–	–
CC1(C)N=C(/C(Cl)=[N+](/[O-])C(=O)c2ccc(F)cc2)C(C)(C)N1O	58.5	67.8 µM	> 100 µM	37 µM	30.8 µM	38.1	42.2 µM	40.1	30.3	–	–	–	–	–	–	–	–
Clc1cc(OC2C3CC4CC(C3)CC2C4)nc(Cl)n1 (centres undefined)	53.4	39.1 µM	> 100 µM	23.3 µM	30.1 µM	43	–	38.8	32.5	34.8 µM	–	–	–	–	–	–	–
Oc1cc2c3c(c1)c1cc4c(cc1c[n+]3CC2)OCO4	22.5	13.9 µM	10.2 µM	> 39.8 µM	7.85 µM	6.46	17.2 µM	> 100	> 100	–	–	–	–	–	–	–	–
O=[N+]([O-])C(=C1NCCN1)/C(Cl)=C(\Cl)Br	40.6	> 100 µM	> 100 µM	> 100 µM	> 61.7 µM	62.4	> 100 µM	> 100	> 100	65.7 µM	–	–	–	–	–	–	–
COc1c(C)c(C/C=C(\C)CCCCO[Si](c2ccccc2)(c2ccccc2)C(C)(C)C)c(OC)c(OC)c1OC	> 100	26.4 µM	> 46.4 µM	42.2 µM	> 100 µM	> 46.4	> 100 µM	> 46.4	> 46.4	> 46.4 µM	–	–	–	–	–	–	–
Nc1cccc2cc(Cl)cnc12	> 100	> 100 µM	> 100 µM	> 100 µM	> 100 µM	> 100	> 100 µM	> 100	> 100	> 100 µM	–	–	–	–	–	–	–
N=c1n(C(=O)N2CCCC2)c2cc(Cl)ccc2n1C1=NCCN1	98.2	> 100 µM	> 100 µM	> 100 µM	> 100 µM	> 100	> 100 µM	> 100	> 100	> 100 µM	–	–	–	–	–	–	–
COC(=O)c1cc2c(n1S(=O)(=O)c1ccc(C)cc1)C(=O)C(=O)c1[nH]cc(C(=O)OCc3ccccc3)c1-2	0.975	0.563 µM	0.441 µM	0.559 µM	0.115 µM	0.515	0.462 µM	0.311	0.167	0.944 µM	–	–	–	–	–	–	–
Cc1cccc(/C=N/NC(=S)Nc2ccccc2)n1	> 29.2	> 100 µM	98.3 µM	> 25 µM	64.2 µM	75.6	> 25 µM	10.4	8.05	> 100 µM	–	–	–	–	–	–	–
O=C(O)CN(CC(=O)O)C1CCCCC1N(CC(=O)O)CC(=O)NCCN=C=S (centres undefined)	> 100	> 100 µM	> 100 µM	> 100 µM	> 100 µM	> 100	> 100 µM	> 100	> 100	> 100 µM	–	–	–	–	–	–	–
COc1cc([C@@H]2c3cc4c(cc3[C@@H](Nc3ccc([N+](=O)[O-])cc3C(=O)c3ccccc3)[C@H]3COC(=O)[C@H]23)OCO4)cc(OC)c1OC	> 100	> 100 µM	> 100 µM	> 100 µM	> 100 µM	> 100	> 100 µM	0.502	> 100	> 100 µM	–	–	–	–	–	–	–
CC(C)/C(Cl)=N\OC(=O)Nc1ccc(S(N)(=O)=O)cc1	52	33.3 µM	> 78.7 µM	33.9 µM	10.1 µM	4.97	45.5 µM	31.5	22.1	5.42 µM	–	–	–	–	–	–	–
Cc1ccc(SCC(CSCCO)OCn2cnc3c2NC(N)=NC32OCCO2)cc1 (centres undefined)	> 100	–	> 100 µM	> 100 µM	> 100 µM	> 100	–	> 100	> 100	> 100 µM	–	–	–	–	–	–	–
N#CC1=C(N)N(c2ccccc2)C(c2ccco2)C1(C#N)C#N (centres undefined)	81	37.2 µM	71.4 µM	47.9 µM	52.8 µM	45.5	42 µM	41.2	43.4	71 µM	–	–	–	–	–	–	–
O=[N+]([O-])/C(C(Cl)=C(Cl)Cl)=C(\SCc1ccccc1)N1CCCCC1	51.1	87.1 µM	> 100 µM	57.1 µM	27.1 µM	92.9	53.2 µM	46	45.6	41.1 µM	–	–	–	–	–	–	–

Structure (SMILES)	TGI (T-47D breast) [µM]	TGI (KM12 colon)	TGI (SNB-19 CNS)	TGI (IGROV1 ovarian)	TGI (MALME-3M melanoma)	TGI (RPMI-8226 leukemia) [µM]	TGI (NCI-H226 lung)	TGI (SF-539 CNS) [µM]	TGI (M14 melanoma) [µM]	TGI (MOLT-4 leukemia)	GI50 (KM12 colon) [µM]	GI50 (SNB-19 CNS) [µM]	GI50 (IGROV1 ovarian) [µM]	GI50 (MALME-3M melanoma) [µM]	GI50 (NCI-H226 lung) [µM]	GI50 (SF-539 CNS) [µM]	GI50 (MOLT-4 leukemia) [µM]
CNC(=O)OCC1=C(COC(=O)NC)C(C)N(c2ccc(OC)cc2)C1 (centres undefined)	> 100	> 100 µM	> 100 µM	> 100 µM	> 100 µM	> 100	6.21 µM	> 100	> 100	> 100 µM	–	–	–	–	–	–	–
Clc1ccc(/C=C/c2nc3ccccc3s2)cc1Cl	9.77	> 100 µM	> 100 µM	> 100 µM	> 100 µM	> 100	–	> 100	> 100	> 100 µM	–	–	–	–	–	–	–
O=C1C(=Cc2ccc(O)cc2)N=C(c2ccccc2)N1n1c(-c2ccccc2)nc2ccccc2c1=O	> 100	> 100 µM	> 100 µM	> 100 µM	> 100 µM	> 100	> 100 µM	> 100	> 100	> 100 µM	–	–	–	–	–	–	–
CN1CCN([C@H]2C[C@H]3[C@@H]4CC=C5C[C@@H](O)CC[C@]5(C)[C@H]4CC[C@]3(C)C2=O)CC1	> 100	> 100 µM	> 100 µM	> 100 µM	> 100 µM	> 100	> 100 µM	> 100	> 100	> 100 µM	–	–	–	–	–	–	–
O=C1/C(=C/c2ccc(O)cc2)CC/C1=C\c1ccc(O)cc1	> 100	> 100 µM	> 100 µM	> 100 µM	> 100 µM	> 100	> 100 µM	> 100	> 100	> 52.8 µM	–	–	–	–	–	–	–
Cc1c2cnccc2c(C)c2c1c1ccccc1n2CCCN	2.03	0.815 µM and 0.286 µM	2.19 µM and 0.781 µM	1.74 µM and 0.973 µM	2.09 µM and 1.08 µM	0.671	1.86 µM and 2.78 µM	1.35	0.91	0.472 µM and 0.217 µM	0.0374	0.0945	0.198	0.313	1.18	0.317	< 0.0178
C=C(C1=CC(=O)C(C)(C)O1)[C@@H]1CC=C([C@@H]2CC[C@H]3[C@@]2(C)CC[C@H]2C(C)(C)C(=O)[C@H](O)C[C@]32C)[C@H](O)O1	3.41	20.4 µM	24.8 µM	5.48 µM	5.27 µM	–	40.3 µM	2.73	3.08	3.96 µM	–	–	–	–	–	–	–
Cc1cn(C2CC(N(O)C(N)=O)C(CO)O2)c(=O)[nH]c1=O (centres undefined)	> 100	> 100 µM	> 100 µM	–	> 100 µM	> 100	–	> 100	> 100	> 100 µM	–	–	–	–	–	–	–
C=C1c2nc3ccccc3n2C=C(c2ccccc2)N1c1ccc([N+](=O)[O-])cc1	> 53.5	13.8 µM	24.4 µM	27 µM	25.9 µM	> 55.7	27.6 µM	3.04	> 60.4	> 100 µM	–	–	–	–	–	–	–
COC(=O)C1CCC(=O)N1C(c1ccccc1)c1ccc(OC)c(OC)c1 (centres undefined)	> 100	> 100 µM	> 100 µM	> 100 µM	> 100 µM	> 100	> 100 µM	> 100	> 100	–	–	–	–	–	–	–	–
CC[C@@]1(O)C(=O)OCc2c1cc1n(c2=O)Cc2c-1nc1ccccc1c2/C=N\NC(=O)CN	> 20.3	> 100 µM	–	> 66.7 µM	> 91.6 µM	18.8	3.54 µM	0.127	–	0.368 µM	–	–	–	–	–	–	–
CCOC(=O)c1c2ccccc2n2c(N)c(C(N)=O)nnc12	> 100	> 100 µM	91.8 µM	42.6 µM	> 100 µM	> 100	–	49.8	> 100	> 100 µM	–	–	–	–	–	–	–
CC(C)c1ccc(/C=C2/C=C(c3ccc4ccccc4c3)OC2=O)cc1	> 100	> 100 µM	> 100 µM	> 100 µM	33.4 µM	93.7	> 100 µM	> 100	> 100	56.8 µM	–	–	–	–	–	–	–
COc1ccc(C2c3cc4c(cc3OC(NNS(=O)(=O)c3ccc(C)cc3)C2C)OCO4)cc1 (centres undefined)	> 100	> 100 µM	> 100 µM	> 100 µM	> 100 µM	> 100	> 100 µM	> 100	> 100	> 100 µM	–	–	–	–	–	–	–
C(/c1ccco1)=c1/nc(-c2ccccc2)n2c1nc1ccccc12	> 100	> 100 µM	> 100 µM	> 100 µM	> 100 µM	44.4	> 100 µM	> 100	> 100	33.5 µM	–	–	–	–	–	–	–
CC(C)CC(=O)OC[n+]1ccc(-c2c(COC(=O)NC(C)C)c(COC(=O)NC(C)C)c3n2CCC3)cc1	> 100	> 100 µM	> 100 µM	> 100 µM	> 100 µM	> 100	> 100 µM	> 100	> 100	> 100 µM	–	–	–	–	–	–	–
